What was measured:
[1] = dissolution of Sumatriptan in ethanol; format: physicochemical; details: 2 mg, 4 mg or 6 mg of Sumatriptan for 0.75 ml of ethanol at 35%
From the text: This coefficient can be modulated based on the degree of alcohol and the water/ethanol ratio that is used.

[2] = administered via the digestive tract; cited from earlier work
[3] = intra-nasal, 20 mg (nasal spray, Imigrane); cited from earlier work
[4] = system: acute Cluster Headache attack; details: subcutaneous injection, single dosage of 6 mg, mean delay of 15 minutes; cited from earlier work

CNS(=O)(=O)Cc1ccc2[nH]cc(CCN(C)C)c2c1 [Sumatriptan]
dissolution in ethanol [1]: complete dissolution | mean volume of theoretical distribution in the human body [2]: 200 L | residual bioavailability [2]: less than 14 % of the administered dose | mean bioavailability of the administered dose [3]: ≤ 10% | remission of the acute Cluster Headache attack [4]: 75%
